# Experimental data taken from publication PMC9298037 (Chemmedchem, 2021).
# Read-outs that look alike come from different tables or passages of the source.
# Experiments:
# [1] = molecular target: T1, MELK (Homo sapiens, UniProt Q14680); assay: biochemical; conditions: for inhibition at 10 µM: read-out: Inh. %, single-point screen at 10uM concentration, Table S1
# [2] = molecular target: T1, MELK
# T1 sequence (Q14680 whole entry): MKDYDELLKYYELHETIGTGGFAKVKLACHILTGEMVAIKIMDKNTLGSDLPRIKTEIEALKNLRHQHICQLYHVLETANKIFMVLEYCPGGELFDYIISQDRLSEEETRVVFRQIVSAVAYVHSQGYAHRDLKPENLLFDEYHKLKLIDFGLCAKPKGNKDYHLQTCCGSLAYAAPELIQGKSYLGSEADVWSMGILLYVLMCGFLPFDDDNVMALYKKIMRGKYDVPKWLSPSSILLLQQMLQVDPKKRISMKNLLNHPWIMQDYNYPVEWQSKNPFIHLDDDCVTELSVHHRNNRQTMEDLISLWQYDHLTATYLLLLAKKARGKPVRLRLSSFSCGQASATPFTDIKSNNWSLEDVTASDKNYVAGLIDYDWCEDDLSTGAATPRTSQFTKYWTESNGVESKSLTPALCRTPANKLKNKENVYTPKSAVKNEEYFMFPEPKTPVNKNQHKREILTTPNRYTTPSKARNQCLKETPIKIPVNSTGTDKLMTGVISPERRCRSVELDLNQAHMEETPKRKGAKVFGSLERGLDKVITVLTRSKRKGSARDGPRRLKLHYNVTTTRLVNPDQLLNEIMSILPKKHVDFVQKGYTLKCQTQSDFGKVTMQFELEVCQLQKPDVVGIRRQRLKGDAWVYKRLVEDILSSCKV
Structure (SMILES),IC50 [1],inhibition at 10 µM [1],other results
"COc1cccc(-c2nc3c(C)c4ccccc4cn3n2)c1 [Compound 5, 2‐(3‐methoxyphenyl)‐10‐methyl‐[1,2,4]triazolo[1,5‐b]isoquinoline]",4.93 µM,> 40%,–
"Cc1c2ccccc2cn2nc(-c3ccc(C(F)(F)F)cc3)nc12 [Compound 8, 10‐methyl‐2‐(4‐(trifluoromethyl)phenyl)‐[1,2,4]triazolo[1,5‐b]isoquinoline]",–,> 40%,–
"Cc1c2ccccc2cn2nc(-c3ccccn3)nc12 [Compound 11, 10‐methyl‐2‐(pyridin‐2‐yl)‐[1,2,4]triazolo[1,5‐b]isoquinoline]",6.3 µM,–,–
"Cc1c2ccccc2cn2nc(-c3ccc(Cl)cc3Cl)nc12 [Compound 13, 2‐(2,4‐dichlorophenyl)‐10‐methyl‐[1,2,4]triazolo[1,5‐b]isoquinoline]",24.1 µM,–,–
"CCc1c2ccccc2cn2nc(-c3ccc(Cl)cc3)nc12 [Compound 17, 2‐(4‐chlorophenyl)‐10‐ethyl‐[1,2,4]triazolo[1,5‐b]isoquinoline]",> 3.7 µM,–,–
"c1ccc(-c2nc3c4ccccc4ccn3n2)cc1 [ID 1855, 2‐phenyl‐[1,2,4]triazolo[3,2‐a]isoquinoline]",–,> 40%,–

# Further lines, with some results ahead:
IC50 [1],inhibition at 10 µM [1],Structure (SMILES),other results
3.67 µM,> 40%,"COc1ccc(-c2nc3c(C)c4ccccc4cn3n2)cc1 [Compound 4, 2‐(4‐methoxyphenyl)‐10‐methyl‐[1,2,4]triazolo[1,5‐b]isoquinoline]",–
0.794 µM,–,"CCc1c2ccccc2cn2nc(-c3ccc(OC)cc3)nc12 [Compound 18, 10‐ethyl‐2‐(4‐methoxyphenyl)‐[1,2,4]triazolo[1,5‐b]isoquinoline]",inhibitory activity (in words) ([2]; MELK): sub‐micromolar; activity boost ([2]; over 3-methoxyphenyl counterpart 19): 2.5 fold; activity boost ([2]; over 10-methyl counterpart 4): 4.5 fold
2.04 µM,> 40%,"CCc1c2ccccc2cn2nc(-c3cccc(OC)c3)nc12 [Compound 19, 10‐ethyl‐2‐(3‐methoxyphenyl)‐[1,2,4]triazolo[1,5‐b]isoquinoline]",activity boost ([2]; in comparison to compound 5 (10-ethyl vs 10-methyl)): 2.5 fold
